Source: the NIST ThermoML archive (doi:10.1016/j.jct.2007.02.009)
± gives the expanded uncertainty stated by the source.

How the values were obtained:
[1] = Crystal; Adiabatic calorimetry
[2] = Molar enthalpy of transition or fusion; conditions: Crystal; Adiabatic calorimetry

Triple point temperature [1]: 212.86 ± 0.11 K
Molar enthalpy of transition or fusion [2]: 2.14 ± 0.0311 kcal/mol
Structure (SMILES): CN(C)C=O [dimethylformamide]
